Experiment [1] deals with T1, cloned human H3 receptors, stably expressed in SK-N-MC cells (Homo sapiens, UniProt Q9Y5N1).
T1 construct: expressed in transfected cells; host or cells: SK-N-MC cells
Kind of experiment: H3 Receptor Binding (Human). Particulars: average of the results obtained. As to the method:
Binding of compounds to the cloned human H3 receptors, stably expressed in SK-N-MC cells, was performed as described by Barbier, A. J. et al. (Br. J. Pharmacol. 2004, 143(5), 649-661). Data for compounds tested in this assay are presented in Table 1 as an average of the results obtained.

Experiment [2] has as its target T2, Rat H3 (Rattus norvegicus, UniProt Q9QYN8). Kind of experiment: H3 Receptor Binding (Rat), rat brain membranes, N-[3H]-α-methylhistamine. To be noted: rat brain without cerebellum; 0.8 nM N-[3H]-α-methylhistamine; average of results. As to the method:
A rat brain without cerebellum (Zivic Laboratories Inc., Pittsburgh, Pa.) was homogenized in 50 mM Tris-HCl/5 mM EDTA and centrifuged at 1,000 rpm for 5 min. The supernatant was removed and recentrifuged at 15,000 rpm for 30 min. Pellets were rehomogenized in 50 mM Tris/5 mM EDTA (pH 7.4). Membranes were incubated with 0.8 nM N—[^3H]-α-methylhistamine plus/minus test compounds for 60 min at 25° C. and harvested by rapid filtration over GF/C glass fiber filters (pretreated with 0.3% polyethylenimine) followed by four washes with buffer. Nonspecific binding was defined in the presence of 100 μM histamine. Inhibitory concentration (responsible for 50% inhibition of maximal effect, IC50) values were determined by a single site curve-fitting program (GraphPad, San Diego, Calif.) and converted to Ki values based on a N—[^3H]-α-methylhistamine dissociation constant (Kd) of 0.8 nM. Data for compounds tested in this assay are presented in Table 2 as an average of the results obtained.
Target sequence in this assay (Q9QYN8 1-397 isoform Q9QYN8-3): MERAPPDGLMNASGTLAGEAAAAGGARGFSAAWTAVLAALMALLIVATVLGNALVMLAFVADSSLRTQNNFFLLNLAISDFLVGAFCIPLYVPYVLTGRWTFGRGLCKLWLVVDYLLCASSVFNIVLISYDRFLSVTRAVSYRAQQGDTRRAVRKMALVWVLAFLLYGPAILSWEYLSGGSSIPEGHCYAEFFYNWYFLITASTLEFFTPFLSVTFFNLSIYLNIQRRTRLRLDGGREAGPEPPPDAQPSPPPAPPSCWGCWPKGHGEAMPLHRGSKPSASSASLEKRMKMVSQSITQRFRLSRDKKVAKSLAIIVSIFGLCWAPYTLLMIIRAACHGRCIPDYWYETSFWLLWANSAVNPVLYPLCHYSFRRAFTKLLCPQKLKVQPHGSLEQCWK

In another experiment the target is T3, human H3 receptor (Homo sapiens, UniProt Q9Y5N1).
T3 construct: expressed in transfected cells; host or cells: SK-N-MC cells
T3 sequence (Q9Y5N1 whole entry): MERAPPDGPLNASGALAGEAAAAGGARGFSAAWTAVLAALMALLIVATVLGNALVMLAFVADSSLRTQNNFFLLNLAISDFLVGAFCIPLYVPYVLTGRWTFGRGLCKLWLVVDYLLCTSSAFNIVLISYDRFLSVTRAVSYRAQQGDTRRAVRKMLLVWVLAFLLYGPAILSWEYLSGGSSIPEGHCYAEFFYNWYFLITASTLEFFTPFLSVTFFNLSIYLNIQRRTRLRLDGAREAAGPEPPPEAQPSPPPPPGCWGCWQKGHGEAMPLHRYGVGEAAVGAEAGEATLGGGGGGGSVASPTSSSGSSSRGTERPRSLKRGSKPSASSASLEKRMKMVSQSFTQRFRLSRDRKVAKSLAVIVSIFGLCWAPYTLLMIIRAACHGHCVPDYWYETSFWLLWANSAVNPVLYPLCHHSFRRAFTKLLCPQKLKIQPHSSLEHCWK
Kind of experiment: Cyclic AMP Accumulation, SK-N-MC reporter cells (human H3). Particulars: SK-N-MC cells expressing reporter construct and human H3 receptor; read-out: Human pA2 (converted). The class given is cell-based. An excerpt: (§1) Sublines of SK-N-MC cells were created that expressed a reporter construct and either the human or rat H3 receptor. The pA2 values were obtained as described by Barbier et al. (2004). Data for compounds tested in these assays are presented in Table 3, as an average of the results obtained (NT=not tested).

The target of experiment [3] is T2, Rat H3. Kind of experiment: Cyclic AMP Accumulation, SK-N-MC reporter cells (rat H3). The class given is cell-based. Also on record: expressed in transfected cells; host or cells: SK-N-MC cells (subline with reporter construct). Particulars: SK-N-MC cells expressing reporter construct and rat H3 receptor; read-out: Rat pA2 (converted).
Source text: as §1
Target sequence in this assay (Q9QYN8 whole entry): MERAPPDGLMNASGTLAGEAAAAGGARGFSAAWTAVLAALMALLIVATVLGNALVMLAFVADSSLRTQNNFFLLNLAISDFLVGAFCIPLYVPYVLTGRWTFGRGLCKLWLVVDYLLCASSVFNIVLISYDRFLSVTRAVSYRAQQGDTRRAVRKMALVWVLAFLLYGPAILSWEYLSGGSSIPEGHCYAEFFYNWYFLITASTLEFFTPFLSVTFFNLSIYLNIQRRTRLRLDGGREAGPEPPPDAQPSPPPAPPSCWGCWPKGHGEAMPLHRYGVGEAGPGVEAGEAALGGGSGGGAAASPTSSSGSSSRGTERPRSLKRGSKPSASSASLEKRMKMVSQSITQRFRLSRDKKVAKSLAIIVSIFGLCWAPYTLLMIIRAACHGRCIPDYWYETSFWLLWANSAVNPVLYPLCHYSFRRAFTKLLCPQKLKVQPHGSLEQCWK

T1 sequence (Q9Y5N1 whole entry): as the sequence (Q9Y5N1 whole entry) above

In the case of `CC(C)N1CCN(C(=O)c2ccc3c(CN4CCOCC4)cn(C)c3c2)CC1` [Example 1, (4-Isopropyl-piperazin-1-yl)-(1-methyl-3-morpholin-4-ylmethyl-1H-indol-6-yl)-methanone], the values for the Ki (in experiment [1]; at Rat H3 [2]) were 2 nM and 98 nM, respectively. Moreover, the Kb at human H3 receptor was 3.72 nM.
The like results for `CC(C)N1CCN(C(=O)c2ccc3c(CN4CCOCC4)c[nH]c3c2)CC1` [Example 4, (4-Isopropyl-piperazin-1-yl)-(3-morpholin-4-ylmethyl-1H-indol-6-yl)-methanone] were, in that order, 1 nM, 14 nM and 0.234 nM.
The like results for `O=C(c1ccc2c(CN3CCOCC3)c[nH]c2c1)N1CCN(C2CC2)CC1` [Example 5, (4-Cyclopropyl-piperazin-1-yl)-(3-morpholin-4-ylmethyl-1H-indol-6-yl)-methanone] were, in that order, 1 nM, 28 nM and 0.537 nM.
With `CC(C)N1CCCN(C(=O)c2ccc3c(CN4CCOCC4)c[nH]c3c2)CC1` [Example 7, (4-Isopropyl-[1,4]diazepan-1-yl)-(3-morpholin-4-ylmethyl-1H-indol-6-yl)-methanone], the Ki was 1 nM in experiment [1] and 2 nM at Rat H3 [2]. For the same compound, the Kb on Rat H3 [3] is 2 nM.
In the case of `O=C(c1cccc2c(CN3CCOCC3)c[nH]c12)N1CCN(C2CCC2)CC1` [Example 21, (4-Cyclobutyl-piperazin-1-yl)-(3-morpholin-4-ylmethyl-1H-indol-7-yl)-methanone], the inhibitory constant (Ki) worked out at 5 nM in experiment [1] and 19 nM at Rat H3 [2]. Also, on human H3 receptor, the Kb is 1.1 nM.
Regarding `O=C(c1ccc2c(CN3CCN(C4CCC4)CC3)c[nH]c2c1)N1CCCCC1` [Example 29, [3-(4-Cyclobutyl-piperazin-1-ylmethyl)-1H-indol-6-yl]-piperidin-1-yl-methanone], the Ki was found to be 11 nM in experiment [1] and 438 nM on Rat H3 [2].
Taken in the same sequence, the figures for `CC(C)N1CCCN(C(=O)c2ccc3[nH]cc(CN4CCCCC4)c3c2)CC1` [Example 34, (4-Isopropyl-[1,4]diazepan-1-yl)-(3-piperidin-1-ylmethyl-1H-indol-5-yl)-methanone] were 4 nM and 133 nM.
Turning to `CC(C)N1CCN(C(=O)c2ccc3c(CN4CCCC4)c[nH]c3c2)CC1` [Example 58, (4-Isopropyl-piperazin-1-yl)-(3-pyrrolidin-1-ylmethyl-1H-indol-6-yl)-methanone], the affinity at Rat H3 [2], expressed as Ki, was 2 nM.
In experiment [1], `O=C(c1ccc2c(CN3CCN(C4CCCC4)CC3)c[nH]c2c1)N1CCCCCC1` [Example 91, Azepan-1-yl-[3-(4-cyclopentyl-piperazin-1-ylmethyl)-1H-indol-6-yl]-methanone] gave a Ki of 26 nM. Moreover, the Kb on human H3 receptor was 46.8 nM; at Rat H3 [3] it was 67.6 nM.
As for `CC(C)N1CCN(C(=O)c2ccc3scc(CN4CCCCC4)c3c2)CC1` [Example 102, (4-Isopropyl-piperazin-1-yl)-(3-piperidin-1-ylmethyl-benzo[b]thiophen-5-yl)-methanone], the Ki in experiment [1] is 17 nM; at Rat H3 [2], 228 nM.

As usually defined, the Ki is a measure of affinity in units of concentration, obtained from inhibition or displacement. A lower Ki goes with higher affinity.
